Test results taken from patent US20090099218A1, “SYNTHESIS OF NOVEL TUBULIN POLYMERIZATION INHIBITORS: BENZOYLPHENYLUREA (BPU) SULFUR ANALOGS” (priority 2007, published 2009).

Assays:
Miapaca2 = assay: MTT growth inhibition, pancreatic cell line Miapaca2; format: cell-based; conditions: MTT assay, 96 h treatment, average of three independent experiments
Method: (§1) Eight of these analogs 6d, 6h, 6n, 6g, 7b, 7d, 8g, and 8h were tested for their cytotoxicity in seven pancreatic cell lines ASPC1, Panc1, Panc203, Panc430, Pane 1005, MiaPaca2, and HS766T using MTT assay. Cells were trypsinized, seeded at 5×10^3 cells/well in 96-well plate and allowed to grow for 24 hours before the treatment with exponential increasing concentrations of drugs in the presence of 10% FBS. After a 96-hours period of treatment, 20 μl of MTT solution (5 mg/ml in PBS) were added to each well, and the plates were then incubated for 3 hours at 37° C. Medium was then replaced with 100 μl of DMSO per well. Plates were shaken and the optical density was measured at 570 nm using a multiwell plate reader (Bio-Rad, Model 550, Bio-Rad Inc., Hercules, Calif.). Each experiment was performed in triplicate for each drug concentration and was carried out independently at least 3 times. The IC50 value was defined as the concentration needed for a 50% reduction in the absorbance calculated based on the survival curves. Response to drug treatment was assessed by standardizing treatment groups to untreated controls. Compounds activity was compared with compound 1.
(§2) Table 2 (Growth Inhibition of Pancreatic Cancer Cell Lines by BPU and BPTU Analogues (IC50) a) compares the cytotoxicity of a series of new derivatives against a panel of seven pancreatic cancer cell lines, as determined by MTT assay. See, Mosmann, T., J. Immunol. Methods 65:55-63 (1983).

Panc430 = assay: MTT growth inhibition, pancreatic cell line Panc430; format: cell-based; conditions: MTT assay, 96 h treatment; average of three independent experiments
Method: as §1, §2

Panc1 = assay: MTT growth inhibition, pancreatic cell line Panc1; format: cell-based; conditions: MTT assay, 96 h treatment, average of three independent experiments
Method: as §1, §2

HS766 = assay: MTT growth inhibition, pancreatic cell line HS766; format: cell-based; conditions: MTT assay, 96 h treatment, average of three independent experiments
Method: as §1, §2

ASPC1 = assay: MTT growth inhibition, pancreatic cell line ASPC1; format: cell-based; conditions: MTT assay, 96 h treatment, average of three independent experiments
Method: as §1, §2

Panc203 = assay: MTT growth inhibition, pancreatic cell line Panc203; format: cell-based; conditions: MTT assay, 96 h treatment, average of three independent experiments
Method: as §1, §2

Panc1005 = assay: MTT growth inhibition, pancreatic cell line Panc1005; format: cell-based; conditions: MTT assay, 96 h treatment, average of three independent experiments
Method: as §1, §2

LnCaP = assay: MTT growth inhibition, prostate cancer cell line LnCaP; format: cell-based, human; conditions: MTT assay, average of three independent experiments
Method: (§3) This MTT assay was carried using human prostate cancer cell lines CWR22R, LAPC-4 and LnCap using Promega cell titer 96 nonradioactive cell proliferation kits. Cells were trypsinized and centrifuged at 1000 rpm for 5 minutes and the supernatant was aspirated. Cells were resuspended with HBSS to a concentration of 10^6/ml. Cell suspension was diluted in serum containing medium to plate 2000 cells/well/0.2 ml. Cell suspension was transferred to sterile solution basin. Cells were plated using multichannel pipette set at 200 μl and incubated overnight for attachment. One plate was prepared for day 0 MTT assay as follows: 100 μl of media was removed from each well using multichannel pipette and 15 μl of MTT reagent was added. Plates were incubated at 37° C. for 4 hrs. […] of STOP solution was added to each well and incubated at room temperature for 1 hour. Absorbance was measured at 570 and 650 nm on plate reader. All the media from the remaining plates were carefully removed and the cells were treated with the media containing drug. MTT assays were done on days 0, 3, 5 and 7. In the preliminary screening […] BPU sulfur analogs 6l, 6h, 6n, 7d and 8h were screened and their activity was compared with compound 1.
(§4) Compounds with significant inhibitory activity in pancreatic cancer cells were further evaluated against prostate cancer cell lines in the MTT assay, (Mosmann, T., J. Immunol. Methods 65:55-63 (1983)) and the results were compared to those for compound 1 (Table 3).

LAPC-4 = assay: MTT growth inhibition, prostate cancer cell line LAPC-4; format: cell-based, human; conditions: MTT assay, average of three independent experiments
Method: as §3, §4

CWR22R = assay: MTT growth inhibition, prostate cancer cell line CWR22R; format: cell-based, human; conditions: MTT assay, average of three independent experiments
tubulin [1] = assay: Inhibition of tubulin polymerization; format: biochemical; conditions: Tubulin was at 10 μM; read-out: tubulin IC50 ± SD (inhibition of tubulin polymerization)
Method: Briefly, tubulin polymerization was followed turbidimetrically at 350 nm in Beckman model DU7400 and DU7500 recording spectrophotometers equipped with electronic temperature controllers. […] Samples were pre-incubated for 15 min at 30° C. and chilled on ice. GTP (final concentration, 0.4 mmol/L) was added to each reaction mixture, and these were placed in cuvettes held at 0° C. Baselines were established, the temperature was raised to 30° C.

tubulin [2] = assay: Inhibition of [3H]colchicine binding; conditions: Tubulin 1 μM; [3H]colchicine and inhibitor at 5 μM

IC50 (Miapaca2; Homo sapiens, MIA PaCa-2) | IC50 (Panc430) | IC50 (Panc1; Homo sapiens, PANC-1) | IC50 (ASPC1; Homo sapiens, ASPC1) | IC50 (Panc203; Homo sapiens, Panc203) | IC50 (Panc1005; Homo sapiens, Panc1005) | IC50 (LnCaP; Homo sapiens, LNCaP) | IC50 (LAPC-4; Homo sapiens, LAPC4) | IC50 (CWR22R; Homo sapiens, 22Rv1) | Compound | IC50 (HS766; Homo sapiens, Hs 766) | also measured
7 µM | 6.5 µM | 7.5 µM | 6 µM | 5.5 µM | > 10 µM |  |  |  | Nc1ccccc1OC=NOC=Nc1ccc(Sc2ncccn2)cc1 [Compound 7b] | 8 µM | 
5 µM | 2 µM | > 10 µM | > 10 µM | 7.5 µM | > 10 µM |  |  |  | Brc1cnc(Sc2ccc(N=CON=COc3ccccc3)cc2)nc1 [Compound 6g] | 5.5 µM | 
 |  |  |  |  |  | 0.5 µM | 0.6 µM | 5 µM | O=[N+]([O-])c1ccccc1OC=NOC=Nc1ccc(Sc2ncccn2)cc1 [Compound 6l] |  | 
6.1 µM | > 10 µM | > 10 µM | > 10 µM | > 10 µM | > 10 µM | 0.5 µM | 4 µM | > 10 µM | O=C(NC(=O)c1ccccc1[N+](=O)[O-])Nc1ccc(S(=O)(=O)c2ncc(Br)cn2)cc1 [Compound 8h, 1-[4-(5-Bromopyrimidine-2-sulfonyl)phenyl]-3-(2-nitrobenzoyl)-urea] | > 10 µM | 

Compound | IC50 (Miapaca2; Homo sapiens, MIA PaCa-2) | IC50 (Panc430) | IC50 (Panc1; Homo sapiens, PANC-1) | IC50 (ASPC1; Homo sapiens, ASPC1) | IC50 (Panc203; Homo sapiens, Panc203) | IC50 (Panc1005; Homo sapiens, Panc1005) | IC50 (LnCaP; Homo sapiens, LNCaP) | IC50 (LAPC-4; Homo sapiens, LAPC4) | IC50 (CWR22R; Homo sapiens, 22Rv1) | IC50 (HS766; Homo sapiens, Hs 766) | also measured
O=C(NC(=O)c1ccccc1[N+](=O)[O-])Nc1ccc(Oc2nccc(Br)n2)cc1 [Compound 6m] |  | 10 µM |  |  |  |  |  |  |  |  | IC50 (tubulin [1]): 4.7 µM; IC50 (LnCaP): 1 µM; IC50 (Miapaca2): 0.74 µM; IC50 (Panc1): 0.68 µM; IC50 (HS766): 0.47 µM; IC50 (LAPC-4): 0.2 µM; IC50 (ASPC1): 0.77 µM; colchicine binding (% ± SD), inhibition of [3H]colchicine binding (tubulin [2]): 21 ± 5%; IC50 (Panc203): > 10 µM; IC50 (CWR22R): 5 µM; IC50 (Panc1005): > 10 µM
